Data as given in patent US5591717A, “Branched apogenic peptide for inducing apoptosis” (priority 1994, dated 1997).

Tests used:
HL60 cells [1] = experiment: Augmentation by 1,25-dihydroxy vitamin D3 in HL60 cells, microscopy; type: cell-based, human; details: simultaneous exposure
Method: At 1 μM, 1,25-dihydroxy vitamin D3 will drive differentiation of HL60 cells into monocytes; overt differentiation requires 72-96 hours. Accordingly, HL60 cell cultures were simultaneously exposed to a subapoptotic dose of 1 μM CSarma VR5-BAP and 0.5 or 1.0 μM 1, 25-dihydroxy vitamin D3. The cultures were then evaluated by inverted phase microscopy of tissue culture plates and by light microscopic examination of Wright-Giemsa stained cytocentrifuge preparations.

HL60 cells [2] = experiment: Sodium butyrate or retinoic acid with sub-apoptotic CSarma VR5-BAP in HL60 cells; type: cell-based, human; details: 1 μM agent, 2, 3 and 5 days
Method: At 1 μM sodium butyrate and retinoic acid induce monocytic and granulocytic differentiation in HL60 cells, respectively. Neither the sodium butyrate nor retinoic acid is specifically associated with calcium transport. HL60 cells were simultaneously exposed to such […] dose (1 μM) of CSarma VR5-BAP and to either 1 μM sodium butyrate or 1 μM retinoic acid. Cells were cultured for 5 days and evaluated by inverted phase contrast microscopy and light microscopic examination of Wright-Giemsa-Stained cytrocentrifuge preparation. Samples were taken at 2, 3 and 5 days.

[3] = system: HL60, K562, 3201 and H9 cells
Method: A commonly used anti-apogenic compound is zinc. HL60, K562, 3201 and H9 cells were exposed to 1, 2, 4, 7.9, 15.7, 31.3, 62.5, 125, 250, 500, and 1000 μM zinc sulfate and 6 μM CSarma VR5-BAP. The cells were cultured for 24 and 8 hours.

HL60 cell cultures = experiment: Heparin reversal of CSarma VR5-BAP effect in HL60 cells, MTT and INDO-1; type: cell-based, human
Method: HL60 cell cultures were treated with 6 μM CSarma VR5-BAP and 0.3 U/ml, or 3.0 U/ml heparin. Control cell cultures received either no polypeptide or 0.3 U/ml or 3.0 U/ml heparin. Cell growth was determined at 1 and 2 days as assessed by MTT cell proliferation/viability assay. The mobilization of intracellular calcium was assessed by INDO-1 staining and anchored cell fluorescent microscopy.

Compound: C=C1/C(=C\C=C2/CCC[C@]3(C)[C@@H]([C@H](C)CCCC(C)(C)O)CC[C@@H]23)C[C@@H](O)C[C@@H]1O [1,25-dihydroxy vitamin D3, 1,25-dihydroxycholecalciferol]
- increase of sensitivity of HL60 cells to CSarma VR5-BAP (HL60 cells [1]): six-fold

Compound: CC1=C(/C=C/C(C)=C/C=C/C(C)=C/C(=O)O)C(C)(C)CCC1 [retinoic acid]
- apoptosis on simultaneous treatment with 1 μM CSarma VR5-BAP (HL60 cells [2]): did not cause apoptosis

Compound: CCCC(=O)[O-].[Na+] [sodium butyrate]
- apoptosis on simultaneous treatment with 1 μM CSarma VR5-BAP (HL60 cells [2]): did not cause apoptosis

Compound: O=S(=O)([O-])[O-].[Zn+2] [zinc sulfate]
- concentration with direct toxicity [3]: greater than 31.3 μM
- reversal of CSarma VR5-BAP induced apoptosis ([3]; 1 to 1000 μM zinc sulfate with 6 μM CSarma VR5-BAP): failed to reverse

Compound: heparin
- mobilization of intracellular calcium (HL60 cell cultures; INDO-1 staining): prevents mobilization of intracellular calcium
- concentration inhibiting the growth suppression of 6 μM CSarma VR5-BAP (HL60 cell cultures; MTT, 1 and 2 days): greater than or equal to 0.3 U/ml
